IC50 data for 25 compounds are collected here from patent US8138168B1 (Takeda Pharmaceutical Company Limited, priority 2007, dated 2012).

A value given as a limit tells only on which side of the number the result lay.

As a reminder, the IC50 is the midpoint of a concentration-inhibition curve.

For the assay, the target named is T1, Recombinant human renin (Homo sapiens, UniProt P00797).
T1 construct: isolate the active form (residues 67-406); made in house; host or cells: FreeStyle 293-F cells (transient expression of pcDNA3.1(+)/hREN)
T1 sequence (P00797 67-406): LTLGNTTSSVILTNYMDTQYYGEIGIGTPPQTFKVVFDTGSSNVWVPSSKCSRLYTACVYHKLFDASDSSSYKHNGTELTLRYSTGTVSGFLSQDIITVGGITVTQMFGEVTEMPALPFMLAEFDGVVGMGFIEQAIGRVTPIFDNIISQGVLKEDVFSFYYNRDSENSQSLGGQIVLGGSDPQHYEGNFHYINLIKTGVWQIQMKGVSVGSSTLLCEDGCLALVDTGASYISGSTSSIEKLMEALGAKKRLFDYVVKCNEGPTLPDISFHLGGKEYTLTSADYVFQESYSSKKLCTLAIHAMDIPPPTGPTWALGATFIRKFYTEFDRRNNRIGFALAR
Description: In vitro enzymatic activity assay of renin inhibitors (fluorogenic peptide substrate). The format is biochemical. The settings on record: read-out: IC50 of Exemplified Compounds Against Renin. Summed up:
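Enzyme: recombinant human renin, 3 nM final, 10 min compound pre-incubation at 37 °C; buffer 50 mM Hepes pH 7.4 with 0.1 mg/mL BSA or extra 2% BSA; 5% DMSO.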
On to `COCCCn1c([C@@H]2CCCN(C(=O)C[C@H](N)Cc3ccc(-c4ccc(OC)cc4)cc3)C2)nc2ccccc21` [Compound 156, (R)-3-amino-4-(4′-methoxybiphenyl-4-yl)-1((R)-3-(1-(3-methoxypropyl)-1H-benzo[d]imidazol-2-yl)piperidin-1-yl)butan-1-one], for which the IC50 is under 100 nM.

In the case of `COCCCn1c([C@@H]2CCCN(C(=O)C[C@H](N)Cc3ccc(-c4ccccc4C)cc3)C2)nc2ccccc21` [Compound 157, (R)-3-amino-1-((R)-3-(1-(3-methoxypropyl)-1H-benzo[d]imidazol-2-yl)piperidin-1-yl)-4-(2′-methylbiphenyl-4-yl)butan-1-one], the IC50 was under 100 nM.

On to `COCCCn1c([C@@H]2CCCN(C(=O)C[C@H](N)Cc3ccc(-c4cccc(OC)c4)cc3)C2)nc2ccccc21` [Compound 158, (R)-3-Amino-4-(3′-methoxybiphenyl-4-yl)-1-((R)-3-(1-(3-methoxypropyl)-1H-benzo[d]imidazol-2-yl)piperidin-1-yl)butan-1-one], for which the IC50 is under 100 nM.

On to `COCCCn1c([C@@H]2CCCN(C(=O)C[C@H](N)Cc3ccc(-c4ccccc4OC)cc3)C2)nc2ccccc21` [Compound 159], for which the IC50 was under 100 nM.

For `COCCCn1c([C@@H]2CCCN(C(=O)C[C@H](N)Cc3ccc(-c4ccccc4F)cc3)C2)nc2ccccc21` [Compound 160, (R)-3-amino-4-(2′-fluorobiphenyl-4-yl)-1-((R)-3-(1-(3-methoxypropyl)-1H-benzo[d]imidazol-2-yl)piperidin-1-yl)butan-1-one], the IC50 was under 100 nM.

As to `COCCCn1c([C@@H]2CCCN(C(=O)C[C@H](N)Cc3ccc(-c4ccc(N(C)C)cc4)cc3)C2)nc2ccccc21` [Compound 161, (R)-3-amino-4-(4′-(dimethylamino)biphenyl-4-yl)-1-((R)-3-(1-(3-methoxypropyl)-1H-benzo[d]imidazol-2-yl)piperidin-1-yl)butan-1-one], the IC50 was under 100 nM.

On to `COCCCn1c([C@@H]2CCCN(C(=O)C[C@H](N)Cc3ccc(-c4cnccc4OC)cc3)C2)nc2ccccc21` [Compound 162, (R)-3-Amino-1-((R)-3-(1-(3-methoxypropyl)-1H-benzo[d]imidazol-2-yl)piperidin-1-yl)-4-(4-(4-methoxypyridin-3-yl)phenyl)butan-1-one], for which the IC50 is under 100 nM.

For the compound `COCCCn1c([C@@H]2CCCN(C(=O)C[C@H](N)Cc3ccc(-c4cccnc4OC)cc3)C2)nc2ccccc21` [Compound 163, (R)-3-amino-1-((R)-3-(1-(3-methoxypropyl)-1H-benzo[d]imidazol-2-yl)piperidin-1-yl)-4-(4-(2-methoxypyridin-3-yl)phenyl)butan-1-one], the IC50 is under 100 nM.

As for `COCCCn1c([C@@H]2CCCN(C(=O)C[C@H](N)Cc3ccc(-c4ccc(C#N)cc4)cc3)C2)nc2ccccc21` [Compound 164, 4′-((R)-2-amino-4-((R)-3-(1-(3-methoxypropyl)-1H-benzo[d]imidazol-2-yl)piperidin-1-yl)-4-oxobutyl)biphenyl-4-carbonitrile], the IC50 was under 100 nM.

As to `COCCCn1c([C@@H]2CCCN(C(=O)C[C@H](N)Cc3ccc(-c4ccc(S(C)(=O)=O)cc4)cc3)C2)nc2ccccc21` [Compound 165, (R)-3-amino-1((R)-3-(1-(3-methoxypropyl)-1H-benzo[d]imidazol-2-yl)piperidin-1-yl)-4-(4′-(methylsulfonyl)biphenyl-4-yl)butan-1-one], the IC50 was under 100 nM.

Regarding `COCCCn1c([C@@H]2CCCN(C(=O)C[C@H](N)Cc3ccc(-c4c(C)noc4C)cc3)C2)nc2ccccc21` [Compound 166, (R)-3-amino-4-(4-(3,5-dimethylisoxazol-4-yl)phenyl)-1-((R)-3-(1-(3-methoxypropyl)-1H-benzo[d]imidazol-2-yl)piperidin-1-yl)butan-1-one], the IC50 was in the range of 100 to 1000 nM.

As to `COCCCn1c([C@@H]2CCCN(C(=O)C[C@H](N)Cc3ccc(-c4cccnc4Cl)cc3)C2)nc2ccccc21` [Compound 167, (R)-3-amino-4-(4-(2-chloropyridin-3-yl)phenyl)-1-((R)-3-(1-(3-methoxypropyl)-1H-benzo[d]imidazol-2-yl)piperidin-1-yl)butan-1-one], the IC50 was under 100 nM.

Turning to `COCCCn1c([C@@H]2CCCN(C(=O)C[C@H](N)Cc3ccc(-c4ccc(C(N)=O)cc4)cc3)C2)nc2ccccc21` [Compound 168, 4′-((R)-2-Amino-4-((R)-3-(1-(3-methoxypropyl)-1H-benzo[d]imidazol-2-yl)piperidin-1-yl)-4-oxobutyl)biphenyl-4-carboxamide], the IC50 was under 100 nM.

Take `COCCCn1c([C@@H]2CCCN(C(=O)C[C@H](N)Cc3ccc(-c4c[nH]c(=O)[nH]c4=O)cc3)C2)nc2ccccc21` [Compound 169, 5-(4-((R)-2-amino-4-((R)-3-(1-(3-methoxypropyl)-1H-benzo[d]imidazol-2-yl)piperidin-1-yl)-4-oxobutyl)phenyl)pyrimidine-2,4(1H,3H)-dione]: the IC50 was under 100 nM.

As to `COCCCn1c([C@@H]2CCCN(C(=O)C[C@H](N)Cc3ccc(-c4ccc(N)cc4)cc3)C2)nc2ccccc21` [Compound 170, (R)-3-Amino-4-(4′-aminobiphenyl-4-yl)-1-((R)-3-(1-(3-methoxypropyl)-1H-benzo[d]imidazol-2-yl)piperidin-1-yl)butan-1-one], the IC50 is under 100 nM.

As to `COCCCn1c([C@@H]2CCCN(C(=O)C[C@H](N)Cc3ccc(-c4ccc(NC(=O)NC5CC5)cc4)cc3)C2)nc2ccccc21` [Compound 171, 1-(4′-((R)-2-Amino-4-((R)-3-(1-(3-methoxypropyl)-1H-benzo[d]imidazol-2-yl)piperidin-1-yl)-4-oxobutyl)biphenyl-4-yl)-3-cyclopropylurea], the IC50 was under 100 nM.

In the case of `COCCCn1c([C@@H]2CCCN(C(=O)C[C@H](N)Cc3ccc(-c4ccc(NC(N)=O)cc4)cc3)C2)nc2ccccc21` [Compound 172, 1-(4′-((R)-2-amino-4-((R)-3-(1-(3-methoxypropyl)-1H-benzo[d]imidazol-2-yl)piperidin-1-yl)-4-oxobutyl)biphenyl-4-yl)urea], the IC50 is under 100 nM.

For the compound `CCNC(=O)Nc1ccc(-c2ccc(C[C@@H](N)CC(=O)N3CCC[C@@H](c4nc5ccccc5n4CCCOC)C3)cc2)cc1` [Compound 173, 1-(4′-((R)-2-amino-4-((R)-3-(1-(3-methoxypropyl)-1H-benzo[d]imidazol-2-yl)piperidin-1-yl)-4-oxobutyl)biphenyl-4-yl)-3-ethylurea], the IC50 was under 100 nM.

With `COCCCn1c([C@@H]2CCCN(C(=O)C[C@H](N)Cc3ccc(-c4ccc(NC(=O)N(C)C)cc4)cc3)C2)nc2ccccc21` [Compound 174, 3-(4′-((R)-2-amino-4-((R)-3-(1-(3-methoxypropyl)-1H-benzo[d]imidazol-2-yl)piperidin-1-yl)-4-oxobutyl)biphenyl-4-yl)-1,1-dimethylurea], the IC50 is under 100 nM.

For `CNC(=O)Nc1ccc(-c2ccc(C[C@@H](N)CC(=O)N3CCC[C@@H](c4nc5ccccc5n4CCCOC)C3)cc2)cc1` [Compound 175, 1-(4′-((R)-2-amino-4-((R)-3-(1-(3-methoxypropyl)-1H-benzo[d]imidazol-2-yl)piperidin-1-yl)-4-oxobutyl)biphenyl-4-yl)-3-methylurea], the IC50 was under 100 nM.

Consider `COCCCn1c([C@@H]2CCCN(C(=O)C[C@H](N)Cc3ccc(-c4ccc(NC(=O)OC)cc4)cc3)C2)nc2ccccc21` [Compound 176, methyl 4′-((R)-2-amino-4-((R)-3-(1-(3-methoxypropyl)-1H-benzo[d]imidazol-2-yl)piperidin-1-yl)-4-oxobutyl)biphenyl-4-ylcarbamate], for which the IC50 is under 100 nM.

Consider `COCCCn1c([C@@H]2CCCN(C(=O)C[C@H](N)Cc3ccc(-c4ccc(C(=O)NCCOC)cc4)cc3)C2)nc2ccccc21` [Compound 177, 4′-((R)-2-amino-4-((R)-3-(1-(3-methoxypropyl)-1H-benzo[d]imidazol-2-yl)piperidin-1-yl)-4-oxobutyl)-N-(2-methoxyethyl)biphenyl-4-carboxamide], for which the IC50 was under 100 nM.

For the compound `CCOCCNC(=O)c1ccc(-c2ccc(C[C@@H](N)CC(=O)N3CCC[C@@H](c4nc5ccccc5n4CCCOC)C3)cc2)cc1` [Compound 178, 4′-((R)-2-amino-4-((R)-3-(1-(3-methoxypropyl)-1H-benzo[d]imidazol-2-yl)piperidin-1-yl)-4-oxobutyl)-N-(2-ethoxyethyl)biphenyl-4-carboxamide], the IC50 was under 100 nM.

Take `COCCCn1c([C@@H]2CCCN(C(=O)C[C@H](N)Cc3ccc(-c4ccc(C(=O)NCCOC(C)C)cc4)cc3)C2)nc2ccccc21` [Compound 179, 4′-((R)-2-amino-4-((R)-3-(1-(3-methoxypropyl)-1H-benzo[d]imidazol-2-yl)piperidin-1-yl)-4-oxobutyl)-N-(2-isopropoxyethyl)biphenyl-4-carboxamide]: the IC50 was under 100 nM.

Consider `COCCCNC(=O)c1ccc(-c2ccc(C[C@@H](N)CC(=O)N3CCC[C@@H](c4nc5ccccc5n4CCCOC)C3)cc2)cc1` [Compound 180, 4′-((R)-2-amino-4-((R)-3-(1-(3-methoxypropyl)-1H-benzo[d]imidazol-2-yl)piperidin-1-yl)-4-oxobutyl)-N-(3-methoxypropyl)biphenyl-4-carboxamide], for which the IC50 is under 100 nM.
